Values joined by “and” are separate entries in the source; they are usually repeats but may differ in a detail not shown here. Equal values may be shown once.
Key:
S. aureus strain CRB = assay: microbe, parasite or virus in culture; format: cell-based, Staphylococcus aureus; conditions: CRB
Description: Fractional Inhibitory Concentration Index (FICI). Fractional inhibitory testing was performed in checkerboard format to determine whether putative PBP4 inhibitors potentiated the antimicrobial effects of β-lactams toward S. aureus strains USA300 and CRB, as previously described (Chojacnki, et al. Journal of Antimicrobial Chemotherapy, 2003, 52, 1). To do so, in triplicate 10^5 CFU of each strain (10 μL) was added to individual wells of a microtiter plate containing 90 μL MH media. […] Plates were incubated at 37° C. for 16-20 hour and the lowest concentration of each test agent that inhibited bacterial growth alone or in combination was determined by the naked eye. The fractional inhibitory concentration (FIC) index was calculated using the formula: FIC of A (MIC of drug A in combination/MIC of drug A alone)+FIC B ([…]/MIC of drug B alone). A synergistic interaction was defined as a FICI value of less than 0.5, an additive interaction was defined as a FICI value between 0.5 and 1.0, an indifferent interaction was defined as a FICI value between 1.0 and 4.0, and an antagonistic interaction was defined as a FICI value of more than 4.0.

[1] = biological target: recombinant B. subtilis PBP4 (Bacillus subtilis, UniProt P40750); assay: BOCILLIN FL fluorescence polarization binding competition; conditions: compound 50 μM; Ex. 3 series
Chain of recombinant B. subtilis PBP4 (P40750 22-624): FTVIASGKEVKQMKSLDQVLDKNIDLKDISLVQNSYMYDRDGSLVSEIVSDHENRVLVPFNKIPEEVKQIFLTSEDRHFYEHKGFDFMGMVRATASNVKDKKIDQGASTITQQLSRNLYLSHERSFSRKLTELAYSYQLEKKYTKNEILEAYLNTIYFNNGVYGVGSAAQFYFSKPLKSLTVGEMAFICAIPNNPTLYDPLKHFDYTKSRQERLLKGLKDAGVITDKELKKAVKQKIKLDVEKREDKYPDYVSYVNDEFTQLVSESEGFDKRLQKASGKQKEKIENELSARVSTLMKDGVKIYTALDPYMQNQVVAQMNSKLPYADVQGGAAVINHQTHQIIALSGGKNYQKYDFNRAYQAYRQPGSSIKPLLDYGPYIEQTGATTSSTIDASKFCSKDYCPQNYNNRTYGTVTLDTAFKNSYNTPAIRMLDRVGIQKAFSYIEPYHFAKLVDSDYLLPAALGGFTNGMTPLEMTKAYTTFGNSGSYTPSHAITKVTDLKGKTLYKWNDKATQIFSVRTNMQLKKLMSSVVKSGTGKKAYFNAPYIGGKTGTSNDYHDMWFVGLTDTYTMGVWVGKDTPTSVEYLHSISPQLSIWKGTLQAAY
Description: PBP4 BOCILLIN™ FL Binding Competition Assays. The ability of putative PBP4 inhibitors to impact the active site of recombinant PBP4 was assessed using two previously established BOCILLIN™-FL Penicillin (Penicillin V conjugated to BODIPY fluorescent dye) binding assays. First, fluorescence polarization assays were performed as previously described. Briefly, the indicated amount of the putative PBP4 inhibitor or control antibiotic was incubated with 1 μM recombinant B. subtilis PBP4 or S. aureus PBP2a in potassium phosphate buffer (40 mM K2HPO4 and 10 mM KH2PO4) for 1 hour in black 96-well microtiter plates (Corning Life Sciences®, Corning, NY). Following incubation, 1 μM (final concentration) BOCILLIN™ FL penicillin was added, and the mixture was incubated for 30 minutes. BOCILLIN™ FL fluorescence polarization was measured at (495nm excitation and 545nm emission) in a SpectraMax® M5 multimode plate reader (Molecular Devices®, San Jose, CA). All assays were repeated at least 8 times, averaged, and values falling outside of 2 standard deviations were considered outliers. Resulting data was plotted as percentage BOCILLIN™ FL binding inhibition=(T/U)×100; T=FL polarization of ((PBP4+BOCILLIN™ FL)−(PBP4+BOCILLIN™ FL+inhibitor compound)), U=FL polarization of ((PBP4+BOCILLIN™ FL)−(BOCILLIN™ FL)). Second, gel electrophoresis and fluorescence detection were used to measure BOCILLIN™ FL labeling of PBP4 treated with the known PBP4 inhibitor cefoxitin (positive control), kanamycin (negative control) or 9314848 (test compound). Briefly, 1 μM of recombinant PBP4 was mixed with 0, 50, 500, 2000, or 5000 μM 9314848 or control antibiotic in 50 mM phosphate buffer (pH 7.4) and incubated at 37° C. for 30 minutes. Next 40 μM of BOCILLIN™ FL was added to the reaction mixture and incubated for an additional 30 minutes at 37° C. Reactions were stopped by adding 5×SDS-PAGE gel loading dye, heated at 100° C. for 3 minutes and separated by electrophoresis in 12% SDS-PAGE (2 h, 120 Volts). BOCILLIN™ FL labeled PBP4 was imaged at λ=365 nm using a BioRad© Gel Doc EZ™ Imaging system and the gel was then subsequently stained with Bio-safe Coomassie Brilliant Blue stain (BioRad©, Hercules, CA, USA) to measure the amount of protein present in each reaction condition and analyzed using NIH-ImageJ software. The percent BOCILLIN™ FL binding was calculated by first normalizing the protein present in each reaction condition to that of untreated control and subsequently applying each reaction's protein normalization factor to each reaction's fluorescent signal. The percentage BOCILLIN™ FL binding inhibition was then calculated as the normalized band intensity of antibiotic/compound treated sample as compared to control sample (PBP4+BOCILLIN™ FL in the absence of compound).
To more directly evaluate whether 9314848 is likely to affect PBP4 function, the compound's ability to bind recombinant PBP4 was measured using BOCILLIN™ FL fluorescence polarization displacement assays. The premise for the assay is that the fluorescence polarization of the fluorescently labeled β-lactam, penicillin V (BOCILLIN™ FL), will increase upon binding to its cognate target (i.e., PBP4). Further, compounds that bind PBP4 and inhibit its function would impede BOCILLIN™ FL binding thereby allowing assessment of the protein binding affinity of 9314848 using a simple fluorescence reduction assay.

O=C(Nc1ccc2[nH]c(-c3cccs3)nc2c1)c1ccco1 [Compound 1 (7729837)]
Cmpd (putative PBP4 inhibitor) MIC, Alone (S. aureus strain CRB): 200 µM
Fold-decrease in ceftobiprole resistance in combination (S. aureus strain CRB): 2
Cmpd concentration, Combination (S. aureus strain CRB; with ceftobiprole): 50 µM
BPR (ceftobiprole) MIC, Combination (S. aureus strain CRB; with putative PBP4 inhibitor): 64 µg/mL
Percentage Bocillin Displacement (%), PBP4 binding [1]: 25.66% and 25.66 ± 18.09%

Reference: US20260124213A1, “STAPHYLOCOCCUS AUREUS PBP4 INHIBITORS AND METHOD OF USE” (UNIVERSITY OF ROCHESTER, priority 2022, published 2026)
